Laboratory results published in patent US6593342B1, “Pharmaceutical compositions comprising 2-quinolones” (Laboratoire L. Lafon, priority 1998, dated 2003).

Assays:
[1] = test system: U-87MG; assay: MTT test, U-87MG; assay type: cell-based; details: Homo sapiens, 10^−5 M, 72 hours, control = 100%, mean ± SEM, read-out: average optical density (MTT), percentage relative to control
Method: (§1) The influence of the compounds of formulae (I) and (Ia) on non-clonogenic cells was evaluated with the aid of the MTT calorimetric test.
(§2) The principle of the MTT test is based on the mitochondrial reduction, by the metabolically active live cells, of the yellow-colored product MTT (3-(4,5-dimethylthiazol-2-yl)-2,5-diphenyltetrazolium bromide) to a blue-colored product, formazan. The amount of formazan thus obtained is directly proportional to the amount of live cells present in the culture well(s). This amount of formazan is measured by spectrophotometry.
(§3) The cell lines are maintained as a monolayer culture at 37° C. in stoppered culture dishes containing MEM 25 MM HEPES (Minimum Essential Medium) base medium. This medium is suited to the growth of a range of various mammalian diploid or primary cells. This medium is then supplemented with:
(§4) an amount of 5% of FCS (Foetal Calf Serum) decomplemented at 56° C. for 1 hour,
(§5) 0.6 mg/ml of L-glutamine,
(§6) 200 μg/ml of streptomycin,
(§7) The 12 human cancer cell lines which were used were obtained from the American Type Culture Collection (ATCC, Rockville, Md., USA). These 12 cell lines are:
(§8) U-373MG (code ATCC: HTB-17) and U-87MG (code ATCC: HTB-14) which are two glioblastomas,
(§9) Experimentally: 100 μl of a cell suspension containing 20 000 to 50 000 (depending on the cell type used) cells/ml of culture medium are inoculated in 96-well flat-bottomed multi-well plates and are incubated at 37° C., under an atmosphere comprising 5% CO2 and 70% humidity. After incubation for 24 hours, the culture medium is replaced with 100 μl of fresh medium containing either the various test compounds at concentrations ranging from 10^−5 to 10^−10 M or the solvent used to dissolve the test products (control condition). After incubation for 72 hours under the above conditions, the culture medium is replaced with 100 μl of a yellowish solution of MTT dissolved at a rate of 1 mg/ml in RPMI 1640. The microplates are reincubated for 3 hours at 37° C. and are then centrifuged for 10 minutes at 400×g. The yellowish solution of MTT is removed and the blue formazan crystals formed in the cell are dissolved in 100 μl of DMSO. The microplates are then shaken for 5 minutes. The intensity of the resulting blue coloration, and thus of the conversion of the yellow product MTT into blue formazan by the cells that are still alive at the end of the experiment, is quantified by spectrophotometry using a Dynatech Immunoassay System machine at wavelengths of 570 nm and 630 nm corresponding, respectively, to the maximum absorption wavelengths of formazan and to the background noise. Software incorporated in the spectrophotometer calculates the average optical density values and the standard deviation (SD) and standard error of mean (SEM) values.
(§10) By way of example, the results of the average optical density, expressed as a percentage relative to the average optical density measured under the control condition (set equal to 100%), obtained at a concentration of 10^−5 M on the 12 abovementioned tumor cell lines are given in Table II.

[2] = test system: U-373MG; assay: MTT test, U-373MG; assay type: cell-based; details: Homo sapiens, U373 MG, 10^−5 M, 72 hours, control = 100%, mean ± SEM, read-out: average optical density (MTT), percentage relative to control
Method: as §1, §2, §3, §4, §5, §6, §7, §8, §9, §10

[3] = test system: SW1088; assay: MTT test, SW1088; assay type: cell-based; details: Homo sapiens, 10^−5 M, 72 hours, control = 100%, mean ± SEM, read-out: average optical density (MTT), percentage relative to control
Method: as §1, §2, §3, §4, §5, §6, §7
SW1088 (code ATCC: HTB-12) which is an astrocytoma,
as §9, §10

[4] = test system: T24; assay: MTT test, T24; assay type: cell-based; details: Homo sapiens, T-24, 10^−5 M, 72 hours, control = 100%, mean ± SEM, read-out: average optical density (MTT), percentage relative to control
Method: as §1, §2, §3, §4, §5, §6, §7
(§11) J82 (code ATCC: HTB-1) and T24 (code ATCC: HTB-4) which are two bladder cancers,
as §9, §10

[5] = test system: J82; assay: MTT test, J82; assay type: cell-based; details: Homo sapiens, 10^−5 M, 72 hours, control = 100%, mean ± SEM, read-out: average optical density (MTT), percentage relative to control
Method: as §1, §2, §3, §4, §5, §6, §7, §11, §9, §10

[6] = test system: HCT-15; assay: MTT test, HCT-15; assay type: cell-based; details: Homo sapiens, 10^−5 M, 72 hours, control = 100%, mean ± SEM, read-out: average optical density (MTT), percentage relative to control
Method: as §1, §2, §3, §4, §5, §6, §7
(§12) HTC-15 (code ATCC: CCL-225) and LoVo (code ATCC: CCL-229) which are two colorectal cancers,
as §9, §10

[7] = test system: LoVo; assay: MTT test, LoVo; assay type: cell-based; details: Homo sapiens, 10^−5 M, 72 hours, control = 100%, mean ± SEM, read-out: average optical density (MTT), percentage relative to control
Method: as §1, §2, §3, §4, §5, §6, §7, §12, §9, §10

[8] = test system: MCF7; assay: MTT test, MCF7; assay type: cell-based; details: Homo sapiens, 10^−5 M, 72 hours, control = 100%, mean ± SEM, read-out: average optical density (MTT), percentage relative to control
Method: as §1, §2, §3, §4, §5, §6, §7
(§13) T-47D (code ATCC: HTB-133) and MCF7 (code ATCC: HTB-22) which are two breast cancers,
as §9, §10

[9] = test system: T-47D; assay: MTT test, T-47D; assay type: cell-based; details: Homo sapiens, T47D, 10^−5 M, 72 hours, control = 100%, mean ± SEM, read-out: average optical density (MTT), percentage relative to control
Method: as §1, §2, §3, §4, §5, §6, §7, §13, §9, §10

[10] = test system: A549; assay: MTT test, A549; assay type: cell-based; details: Homo sapiens, 10^−5 M, 72 hours, control = 100%, mean ± SEM, read-out: average optical density (MTT), percentage relative to control
Method: as §1, §2, §3, §4, §5, §6, §7
(§14) A549 (code ATCC: CCL-185) and A-427 (code ATCC: HTB-53) which are two non-small-cell lung cancers,
as §9, §10

[11] = test system: A-427; assay: MTT test, A-427; assay type: cell-based; details: Homo sapiens, 10^−5 M, 72 hours, control = 100%, mean ± SEM, read-out: average optical density (MTT), percentage relative to control
Method: as §1, §2, §3, §4, §5, §6, §7, §14, §9, §10

[12] = test system: PC-3; assay: MTT test, PC-3; assay type: cell-based; details: Homo sapiens, 10^−5 M, 72 hours, control = 100%, mean ± SEM, read-out: average optical density (MTT), percentage relative to control
Method: as §1, §2, §3, §4, §5, §6, §7
PC-3 (code ATCC: CRL-1435) which is a prostate cancer.
as §9, §10

[13] = Determination of the maximum tolerated dose (MTD); details: mouse, in vivo, ip; B6D2F1/Jico mice; single intraperitoneal administration, 2.5 to 160 mg/kg; survival over 14 days
Method: 3.—Determination of the Maximum Tolerated Dose (MTD):
The evaluation of the maximum tolerated dose was carried out on 4- to 6-week-old B6D2F1/Jico mice. The compounds were administered intraperitoneally at increasing doses graduating from 2.5 to 160 mg/kg. The value of the MTD (expressed in mg/kg) is determined from the observation of the survival rate of the animals over a 14-day period after a single administration of the product under consideration. The weight change of the animals is also monitored during this period. When the value of the MTD is greater than 160 mg/kg, the MTD value is likened to 160 mg/kg by default.
The results of the estimation of the maximum tolerated dose (MTD) are collated in the following table: […]

SMILES | viability at 10 µM [1] [%] | viability at 10 µM [2] [%] | viability at 10 µM [3] [%] | viability at 10 µM [4] [%] | viability at 10 µM [5] [%] | viability at 10 µM [6] [%] | viability at 10 µM [7] [%] | viability at 10 µM [8] [%] | viability at 10 µM [9] [%] | viability at 10 µM [10] [%] | viability at 10 µM [11] [%] | viability at 10 µM [12] [%] | MTD at 14 day [13] [mg/kg]
COc1ccc(-c2cc3c(OC)cc(OC)cc3n(C)/c2=N\Nc2ccccc2)cc1 [CRL8270, 5,7-Dimethoxy-3-(4-methoxyphenyl)-1-methyl-1,2-dihydro-2-quinolinone-2-phenylhydrazone] | 75.6 ± 0.9 | 52.2 ± 3.2 | 50.7 ± 1.8 | 51.1 ± 3.8 | 42.5 ± 0.8 | 58.8 ± 1.8 | 80 ± 3.2 | 51.5 ± 2.4 | 22.9 ± 4.3 | 52.2 ± 2.4 | 30.8 ± 2.1 | 49.4 ± 1.1 | > 160
COc1ccc(-c2cc3c(OC)cc(OC)cc3nc2S)cc1 [CRL8271, 5,7-Dimethoxy-3-(4-methoxhphenyl)-1,2-dihydro-2-quinolinethione] | 78.5 ± 1.7 | 96.2 ± 1.6 | 102.2 ± 0.5 | 107 ± 2.3 | 75.9 ± 1.3 | 87.2 ± 2.8 | 94.2 ± 2.8 | 106 ± 2.3 | 90.9 ± 1.7 | 94.2 ± 4.7 | 84.1 ± 1.9 | 107 ± 2.7 | > 160
COc1cc(OC)c2cc(-c3ccc(O)cc3)c(O)nc2c1 [CRL8284, 5,7-Dimethoxy-3-(4-hydroxyphenyl)-1,2-dihydro-2-quinolinone] | 88.1 ± 2.2 | 87.7 ± 1.4 | 78.3 ± 1.6 | 68.5 ± 0.9 | 48.8 ± 0.7 | 77.3 ± 1.8 | 102 ± 1.3 | 66.6 ± 2.7 | 89.9 ± 1.9 | 91.7 ± 1.6 | 96 ± 2 | 83.8 ± 1 | > 160
COc1ccc(-c2cc3c(OC)cc(OC)c4c3n(c2=O)CCC4=O)cc1 [CRL8285, 8,10-Dimethoxy-6-(4-methoxyphenyl)-2,3-dihydro-1H,5H-pyrido[3,2,1-ij]quinoline-1,5-dione] | 85.1 ± 2 | 96.9 ± 1.6 | 89.8 ± 2.7 | 72.7 ± 1.8 | 68.7 ± 2.9 | 90.6 ± 1.6 | 103 ± 3.1 | 83.7 ± 2.3 | 89.3 ± 1.7 | 92.5 ± 3.5 | 78.4 ± 1.6 | 93.4 ± 1.8 | > 160
Oc1ccc(-c2cc3c(O)cc(O)cc3nc2O)cc1 [CRL8311, 5,7-Dihydroxy-3-(4-hydroxyphenyl)-1,2-dihydro-2-quinolinone] | 91.8 ± 1.3 | 113 ± 2.5 | 80.7 ± 1.7 | 90 ± 1.9 | 127 ± 1.9 | 101 ± 3.6 | 77.9 ± 1.7 | 98.8 ± 2.3 | 108 ± 6.6 | 106 ± 2.4 | 89.7 ± 2 | 122 ± 3.5 | > 160
